# Assay results: paper PMC7701510, “Identification of HN252 as a potent inhibitor of protein phosphatase PPM1B” (Journal of Cellular and Molecular Medicine, 2020)
# Assays:
# [1] = tested on: HL7702 cells with PPM1B shRNA; test: Phospho Explorer Antibody Microarray, PPM1B knockdown plus HN252; conditions: in the presence of HN252
# Protocol: Phosphorylation profiling was performed by using the Phospho Explorer Antibody Microarray from Full Moon BioSystems, Inc (Sunnyvale, CA), according to the protocol which was previously described. ^24 In brief, cell lysates obtained from HL7702 cells treated by HN252 or DMSO for different hours or transfected with lentiviral vectors carrying shRNAs for 36 h were biotinylated with the Antibody Array Assay Kit (Full Moon BioSystems, Inc), and the data were analysed with the GenePixTM Pro 4.0 image analysis software.
# HL7702 cells = test: Western blot of protein phosphorylation after HN252 treatment; format: cell-based
# Protocol: HL7702, COS7, PC‐3 and HCT116 cells were purchased from the Cell Bank of the Shanghai Institute for Biological Sciences, Chinese Academy of Science. HCT116, COS7 and PC3 cells were cultured in DMEM (Gibco); HL7702 cells were cultured in RPMI 1640 medium (Gibco). All media were supplemented with 10% foetal bovine serum (Biological Industries), 100 IU penicillin and […] streptomycin at 37°C in a humidified incubator with 5% CO2.
# PRL = test: pNPP hydrolysis phosphatase assay (selectivity panel); format: biochemical; conditions: pNPP as substrate
# [2] = immunoblotting, HN252 5 μM, 2 h
smiles,measurement,setting,value
Nc1cc(-c2ccc(-c3ccc(O)c(O)c3)cc2)ccc1C(=O)O [HN252],number of proteins with further enhanced phosphorylation compared to PPM1B knockdown (>1.5-fold),[1],8
same,phosphorylation of JNK,HL7702 cells; [2],up‐regulated
same,phosphorylation of β-catenin,HL7702 cells; [2],enhanced phosphorylation
same,"phosphorylation of AMPKα, CDK2 and p38","HL7702 cells; increasing concentration of HN252, 2 h",dramatically increased
same,IC50,PRL,> 50 µM
